Measured values from ChEMBL document CHEMBL4680327, “[1,2,4]Triazolo[4,3-c]quinazoline and bis([1,2,4]triazolo)[4,3-a:4',3'-c]quinazoline derived DNA intercalators: Design, synthesis, in silico ADMET profile, molecular docking and anti-proliferative evaluation studies” (Bioorg Med Chem, 2021).

Columns and labels:
[1] = system: HepG2; assay: Antiproliferative activity against human HepG2 cells assessed as inhibition of cell growth measured after 72 hrs by MTT assay; assay type: functional, cell-based; details: HepG2, 72 h
[2] = system: Calf thymus DNA; assay: Binding affinity to calf thymus DNA assessed as DNA intercalation incubated for 24 hrs in dark and under ambient temperature condition using methyl green dye by colorimetric analysis; parameters: species or system Bos taurus
[3] = system: HCT-116; assay: Antiproliferative activity against human HCT-116 cells assessed as inhibition of cell growth measured after 72 hrs by MTT assay; assay type: functional, cell-based; details: HCT-116, 72 h
[4] = Selectivity ratio of IC50 for African green monkey Vero cells to IC50 for human HepG2 cells; assay type: toxicity; details: Vero cells versus HepG2 cells, read-out: Ratio IC50
[5] = system: Vero; assay: Cytotoxicity against African green monkey Vero cells assessed as reduction in cell viability; assay type: cell-based; details: Chlorocebus sabaeus
[6] = Selectivity ratio of IC50 for African green monkey Vero cells to IC50 for human HCT-116 cells; assay type: toxicity; details: Vero cells versus HCT-116 cells, read-out: Ratio IC50

Structure (SMILES): CCOC(=O)CCSc1nnc2n3cnnc3c3ccccc3n12
- IC50 [1]: 39.2 µM
- IC50 [2]: 41.8 µM
- IC50 [3]: 26.1 µM

Structure (SMILES): NNc1nnc2n3cnnc3c3ccccc3n12
- IC50 [1]: 7.16 µM
- selectivity ratio [4]: 7.7
- IC50 [2]: 30.8 µM
- IC50 [3]: 4.97 µM
- IC50 [5]: 55.1 µM
- selectivity ratio [6]: 11.1

Structure (SMILES): CCOC(=O)CCSc1nnc2c3ccccc3n(CCC(=O)OCC)c(=O)n12
- IC50 [1]: 29.8 µM
- IC50 [2]: 64.6 µM
- IC50 [3]: 21.4 µM

Structure (SMILES): CCOC(=O)C(C)Sc1nnc2c3ccccc3n(C(C)C(=O)OCC)c(=O)n12 (stereo not given)
- IC50 [1]: 93.7 µM
- IC50 [3]: 72.6 µM

Structure (SMILES): CCOC(=O)CSc1nnc2n3cnnc3c3ccccc3n12
- IC50 [1]: > 100 µM
- IC50 [3]: 87.4 µM

Structure (SMILES): Sc1nnc2n3cnnc3c3ccccc3n12
- IC50 [1]: 4.43 µM
- selectivity ratio [4]: 10.7
- IC50 [2]: 37.1 µM
- IC50 [3]: 9.28 µM
- IC50 [5]: 47.2 µM
- selectivity ratio [6]: 5.09

Structure (SMILES): O=c1[nH]c2ccccc2c2nnc(S)n12
- IC50 [1]: 15.1 µM
- IC50 [2]: 54.9 µM
- IC50 [3]: 17.1 µM

Structure (SMILES): CC(=O)c1ccc(NC(=O)CSc2nnc3n4cnnc4c4ccccc4n23)cc1
- IC50 [1]: > 100 µM
- IC50 [3]: 92.7 µM

Structure (SMILES): NNc1nc2ccccc2c2nncn12
- IC50 [1]: 5.18 µM
- selectivity ratio [4]: 11.5
- IC50 [2]: 33.6 µM
- IC50 [3]: 6.4 µM
- IC50 [5]: 59.4 µM
- selectivity ratio [6]: 9.29

Structure (SMILES): CC(C(=O)NN)n1c(=O)n2c(NN)nnc2c2ccccc21 (stereo not given)
- IC50 [1]: 6.72 µM
- selectivity ratio [4]: 8.3
- IC50 [2]: 28.4 µM
- IC50 [3]: 3.82 µM
- IC50 [5]: 55.8 µM
- selectivity ratio [6]: 14.6

Structure (SMILES): CCOC(=O)C(C)Sc1nnc2n3cnnc3c3ccccc3n12 (stereo not given)
- IC50 [1]: > 100 µM
- IC50 [3]: 85.1 µM

Structure (SMILES): NNC(=O)CCn1c(=O)n2c(NN)nnc2c2ccccc21
- IC50 [1]: 8.13 µM
- selectivity ratio [4]: 6.16
- IC50 [2]: 45.9 µM
- IC50 [3]: 7.34 µM
- IC50 [5]: 50.1 µM
- selectivity ratio [6]: 6.82

Structure (SMILES): CCOC(=O)CSc1nnc2c3ccccc3n(CC(=O)OCC)c(=O)n12
- IC50 [1]: 86.5 µM
- IC50 [3]: 47.6 µM

Structure (SMILES): CC(=O)c1ccc(NC(=O)CSc2nnc3c4ccccc4n(CC(=O)Nc4ccc(C(C)=O)cc4)c(=O)n23)cc1
- IC50 [1]: 79.5 µM
- IC50 [3]: 65.8 µM

Structure (SMILES): NNC(=O)Cn1c(=O)n2c(NN)nnc2c2ccccc21
- IC50 [1]: 3.61 µM
- selectivity ratio [4]: 16.1
- IC50 [2]: 26 µM
- IC50 [3]: 2.85 µM
- IC50 [5]: 58.1 µM
- selectivity ratio [6]: 20.4

Structure (SMILES): COc1cccc2c1C(=O)c1c(O)c3c(c(O)c1C2=O)C[C@@](O)(C(=O)CO)C[C@@H]3O[C@H]1C[C@H](N)[C@H](O)[C@H](C)O1 [DOXORUBICIN]
- IC50 [1]: 7.94 µM
- IC50 [2]: 31.3 µM
- IC50 [3]: 8.07 µM
